Patent publication US10155753B2, “4-substituted-2-(5-substituted-1H-indol-2-yl)phenol derivatives, methods for preparing the phenol derivatives and pharmaceutical compositions for inhibiting cell proliferation and migration including the phenol derivatives” (KOREA UNIVERSITY RESEARCH AND BUSINESS FOUNDATION, priority 2015, dated 2018)

test system: YANK-expressed cells (STK32C/MCF7 cell); experiment: Inhibition of cell proliferation (MCF7, STK32C/MCF7 cells, 96-well, read at 450 nm); format: cell-based; conditions: 24 h after addition of compound; FIGS. 3 to 6
Experimental: MCF7, STK32C/MCF7 cell (1×10^4/well) culture was plated in each well of a 96-well plate until it reached a final volume of 100 μl. After 24 h, the compounds at given concentrations were added. 24 h after the addition, 10 μl of an analytical reagent was plated in each well without bubbling. The reaction was allowed to proceed under basic culture conditions for 30 min to 1 h and the inhibitions of cell proliferation were measured at 450 nm.
FIGS. 3 to 6 show concentration-dependent inhibitions of proliferation of the YANK-expressed cells by treatment with the phenol derivatives of Formulae 7, 9, 13, and 32 (corresponding to Compound 34 in FIG. 2), respectively.

Row | SMILES | concentration-dependent inhibition of proliferation of YANK-expressed cells
1 | Oc1ccc(Br)cc1-c1cc2cc(F)ccc2[nH]1 [Formula 7, 4-Bromo-2-(5-fluoro-1H-indol-2-yl)phenol] | inhibited the proliferation of the YANK-expressed cells with high efficacy with increasing concentration
2 | N=C(N)c1ccc2[nH]c(-c3cc(-c4ccc(Cl)cc4)ccc3O)cc2c1 [Compound 32, 2-(4′-Chloro-4-hydroxybiphenyl-3-yl)-1H-indole-5-carboximidamide] | inhibited the proliferation of the YANK-expressed cells with high efficacy with increasing concentration
3 | Oc1ccc(-c2ccc(Cl)cc2)cc1-c1cc2cc(F)ccc2[nH]1 [Formula 13] | inhibited the proliferation of the YANK-expressed cells with high efficacy with increasing concentration
4 | N#Cc1ccc2[nH]c(-c3cc(Br)ccc3O)cc2c1 [Formula 9, 2-(5-Bromo-2-hydroxyphenyl)-1H-indole-5-carbonitrile] | inhibited the proliferation of the YANK-expressed cells with high efficacy with increasing concentration

molecular target: T1, YANK3 (Homo sapiens, UniProt Q86UX6); experiment: In vitro kinase assay: inhibition of YANK3 phosphorylation (IP kinase, [γ-32P]ATP, autoradiography); format: biochemical; parameters: dose or concentration left out as unconfirmed; conditions: MCF7 cells treated with each compound at 37° C. for 1 h; anti-HA IP, kinase reaction 30° C. 30 min
T1 construct: expressed in transfected cells; host or cells: MCF7 cells, Lipofectamine transfection, anti-HA immunoprecipitation
Experimental: Transduction was performed to overexpress YANK3-HA and YB1-HA genes in cells. Lipofectamine reagent (Invitrogen) was used for gene introgression. When cells were grown to a confluency of 60% in a culture dish, human YANK3-HA and YB1-HA genes were introduced into MCF7 cells. After 48 h, the gene-transfected cells were used for experiments. All cultured cells were harvested, lysed in a lysis buffer (1×RIPA buffer 1 mL, 1 mM PMSF, 1 mg/mL aprotinin, 1 mg/mL leupeptin, 2 mM DTT) for 30 min, and centrifuged at 15,000 rpm and 4° C. for 30 min. The supernatant was collected and its total protein content was quantified by the Bradford method. After YB1-HA gene introgression, the MCF7 cells were treated with each compound […] at 37° C. for 1 h. 1 μg of anti-HA antibody was cultured with […] of protein at 4° C. for 15 h, 20 μL of protein A/G-Sepharose was added thereto, followed by culture for another 2 h. The culture was centrifuged to precipitate the protein A/G-Sepharose, washed with IP kinase buffer (50 mM HEPES, pH 7.5, 10 mM MgCl2, 1 mM dithiothreitol, 2.5 mM EGTA, 1 mM NaF, 0.1 mM Na3VO4), and sufficiently mixed with 20 μL of IP kinase buffer. The kinase reaction was initiated by the addition of […] of [γ-^32P]ATP to 40 μL of IP kinase buffer. The reaction was allowed to proceed at 30° C. for 30 min. After addition of 5 μL of 2×SDS sample buffer, the reaction was quenched by boiling for 5 min, which was confirmed by SDS-PAGE electrophoresis and autoradiography.

T1 sequence (Q86UX6 whole entry): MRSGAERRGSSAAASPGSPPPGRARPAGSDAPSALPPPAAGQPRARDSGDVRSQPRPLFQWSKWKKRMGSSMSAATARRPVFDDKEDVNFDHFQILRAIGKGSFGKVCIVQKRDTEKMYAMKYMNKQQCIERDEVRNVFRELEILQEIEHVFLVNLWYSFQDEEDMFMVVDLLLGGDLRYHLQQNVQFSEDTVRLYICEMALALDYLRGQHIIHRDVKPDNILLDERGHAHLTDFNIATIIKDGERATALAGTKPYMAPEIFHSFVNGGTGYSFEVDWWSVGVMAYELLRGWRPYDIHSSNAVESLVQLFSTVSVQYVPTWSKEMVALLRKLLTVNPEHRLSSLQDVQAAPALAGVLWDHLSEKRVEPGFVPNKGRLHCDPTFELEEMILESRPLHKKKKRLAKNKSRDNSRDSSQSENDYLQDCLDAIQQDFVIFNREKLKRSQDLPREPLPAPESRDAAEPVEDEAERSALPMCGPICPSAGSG

Row | SMILES | Inhibition, % (inhibitions (%) of YANK3 phosphorylation)
5 | Oc1ccc(Br)cc1-c1cc2cc(F)ccc2[nH]1 [Formula 7, 4-Bromo-2-(5-fluoro-1H-indol-2-yl)phenol] | 74%
6 | Oc1ccc(-c2ccc(Cl)cc2)cc1-c1cc2cc(Cl)ccc2[nH]1 [Formula 16, 4′-Chloro-3-(5-chloro-1H-indol-2-yl)biphenyl-4-ol] | 125%
7 | N=C(N)c1ccc2[nH]c(-c3cc(-c4ccc(Cl)cc4)ccc3O)cc2c1 [Compound 32, 2-(4′-Chloro-4-hydroxybiphenyl-3-yl)-1H-indole-5-carboximidamide] | 65%
8 | N=C(N)c1ccc2[nH]c(-c3cc(-c4cccs4)ccc3O)cc2c1 [Compound 33, 2-(2-Hydroxy-5-(thiophen-2-yl)phenyl)-1H-indole-5-carboximidamide] | 30%
9 | Oc1ccc(-c2ccc(Cl)cc2)cc1-c1cc2cc(F)ccc2[nH]1 [Formula 13] | 93%
10 | COc1ccc(-c2ccc(O)c(-c3cc4ccccc4[nH]3)c2)cc1 [Formula 11, 3-(1H-Indol-2-yl)-4′-methoxybiphenyl-4-ol] | 163%
11 | N#Cc1ccc2[nH]c(-c3cc(Br)ccc3O)cc2c1 [Formula 9, 2-(5-Bromo-2-hydroxyphenyl)-1H-indole-5-carbonitrile] | 144%
